Measured values published in ChEMBL document CHEMBL4602629, “Isolation of three new meroterpenoids and seven known compounds from Albatrellus yasudae and their Aβ-aggregation inhibitory activity” (Bioorg Med Chem Lett, 2020).

molecular target: Amyloid-beta precursor protein (Homo sapiens, UniProt P05067); assay: Inhibition of human amyloid beta (1 to 40) aggregation after 24 hrs by ThT fluorescence assay
Sequence (P05067 whole entry): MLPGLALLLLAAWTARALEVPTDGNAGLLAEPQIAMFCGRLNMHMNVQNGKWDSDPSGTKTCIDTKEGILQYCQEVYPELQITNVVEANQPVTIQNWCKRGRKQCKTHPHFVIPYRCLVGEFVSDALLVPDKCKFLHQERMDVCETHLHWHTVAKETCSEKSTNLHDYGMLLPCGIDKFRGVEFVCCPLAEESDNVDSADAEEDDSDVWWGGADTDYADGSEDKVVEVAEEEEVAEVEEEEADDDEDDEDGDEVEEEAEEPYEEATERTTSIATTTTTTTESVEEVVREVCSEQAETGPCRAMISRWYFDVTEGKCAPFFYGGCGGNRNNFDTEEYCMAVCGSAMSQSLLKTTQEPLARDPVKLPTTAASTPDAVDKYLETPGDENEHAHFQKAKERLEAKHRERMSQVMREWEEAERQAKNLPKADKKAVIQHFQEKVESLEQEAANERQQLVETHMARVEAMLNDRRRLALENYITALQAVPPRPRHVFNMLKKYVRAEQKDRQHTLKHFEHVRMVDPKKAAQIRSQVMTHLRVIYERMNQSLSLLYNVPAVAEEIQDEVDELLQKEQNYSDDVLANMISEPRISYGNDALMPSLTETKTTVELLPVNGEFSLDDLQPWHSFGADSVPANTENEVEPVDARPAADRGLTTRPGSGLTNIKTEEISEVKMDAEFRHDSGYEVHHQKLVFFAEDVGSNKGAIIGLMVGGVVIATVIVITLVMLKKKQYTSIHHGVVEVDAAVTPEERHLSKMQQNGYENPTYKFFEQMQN

Row | SMILES | IC50
1 | CC(C)=CCC/C(C)=C/CC[C@@]1(C)C=Cc2c(cc(C)c(C(=O)O)c2O)O1 [DAURICHROMENIC ACID] | 24.7 µM
2 | COc1c(O)c(O)c(-c2c(C)c(C/C=C(\C)CC/C=C(\C)CCC=C(C)C)c(OC)c(O)c2O)c(C)c1C/C=C(\C)CC/C=C(\C)CCC=C(C)C | 12.3 µM
3 | CC(C)=CCC/C(C)=C/CC/C(C)=C/Cc1c(C)cc(O)c(O)c1O | 16.7 µM
4 | CC(C)=CCC/C(C)=C/CC/C(C)=C/Cc1c(O)cc(C)c(C(=O)O)c1O [GRIFOLIC ACID] | 20.3 µM
5 | CC(C)=CCC/C(C)=C/CC/C(C)=C/Cc1c(C)cc(O)cc1O | 19.9 µM
6 | COc1c(O)c(O)cc(C)c1C/C=C(\C)CC/C=C(\C)CCC=C(C)C | 29.3 µM
7 | COC(=O)c1c(C)cc(O)c(C/C=C(\C)CC/C=C(\C)CCC=C(C)C)c1O | 221 µM
8 | CC(C)=CC(=O)C/C(C)=C/CC/C(C)=C/Cc1c(O)cc(C)c(C(=O)O)c1O | 151 µM
9 | CC(C)=CCC/C(C)=C/CC/C(C)=C/Cc1c(O)cc(C)cc1O [GRIFOLIN] | 149 µM
10 | CCCCCCCCCCCCCCC[C@@H](O)C(=O)N[C@@H](CO[C@@H]1O[C@H](CO)[C@@H](O)[C@H](O)[C@H]1O)[C@H](O)/C=C/CC/C=C(\C)CCCCCCCCC [CEREBROSIDE] | 62.7 µM
11 | CC(C)=CCC/C(C)=C/CCC1(C)C=Cc2c(O)cc(C)cc2O1 (stereo unspecified) | 68 µM
